Reference: patent US3950387A, “Cysteine derivatives” (Recherches Pharmaceutiques et Scientifiques, priority 1972, dated 1976)
Where a name gives a salt, the structure may show the parent alone.

Columns and labels:
aortic cholesterol = experiment: Aortic cholesterol in cholesterol-fed rabbits (Folch extraction, Liebermann-Burchard method); type: in vivo, rabbit (male albino Bouscat); details: rabbit
Description: (§1) 2. Effect on atheromatic deposits in the aorta and on plasma cholesterol in the rabbit
(§2) In order to create atheromatic lesions experimentally, male albino Bouscat rabbits having an average weight of 2.5 kg are fed on a Provende UAR rabbit diet plus 1 or 2% of cholesterol.
(§3) At the end of 11 to 12 weeks, the animals are sacrificed by having their carotid arteries cut after being anaesthetised with Nembutal and the aorta is removed from lowermost point to the iliac fork, cut open longitudinally and spread out upon a cork board. After fixing with formaldehyde and staining with a 2% aqueous solution of acid fuchsin, pearly white atheromatic spots are apparent against the red background which enables the extent of the deposit to be evaluated quantitatively on a scale from 0 to 5 with 0 corresponding to an absence of lesions and 5 to diffuse lipid deposits covering the whole of the endothelium.
After the inside layers of the wall of the aorta have been separated, all the lipids are extracted by the method of Folch et at. The amount of cholesterol is then determined using the Liebermann-Burchard method.
(§4) In a first test, 60 male rabbits each weighing 2.5 kg are fed on the diet detailed below:
(§5) 5 weeks : diet containing 2% of cholesterol
(§6) 3 weeks : diet containing 1% of cholesterol
(§7) From the beginning the animals are divided into 6 batches of 10 animals each which respectively receive, for the whole duration of the diet, the following products for 5 days per week by the digestive route using an oesophagal probe:
(§8) All the products are administered in suspension in the same volume of gum arabic (5 ml).
(§9) At the end of 12 weeks, visual examination of the atheromatic lesions in the aorta gave the results shown in Table II, the numerical data giving the average extent of deposit in each batch.
(§10) In a second test, using the same experimental method, the two following derivatives were studied in the doses indicated below: […]

plasma cholesterol = experiment: Plasma cholesterol in cholesterol-fed rabbits (Pearson method, Technicon auto-analyser); type: in vivo, rabbit (male albino Bouscat); details: rabbit
Procedure: as §1, §2
Moreover, a check on the plasma cholesterol is carried out at regular intervals during the test using the Pearson method as adopted to the Technicon auto-analyser by Boy, Bonnafe and Mazet (Applicant's own method).
as §4, §5, §6, §7, §8, §9, §10

[1] = Toxicity: maximum tolerated dose in the mouse, oral route; details: in vivo
[2] = tested on: atheromatic deposits in the aorta; experiment: Effect on atheromatic deposits in the aorta (visual examination, scale 0 to 5) in cholesterol-fed rabbits; type: in vivo, rabbit (male albino Bouscat); details: for Extent of atheromatic deposit: rabbit; for Activity ranking (anti-atheromatic): conclusion over both tests in rabbits
Description: as §1, §2, §3, §4, §5, §6, §7, §8, §9, §10

[3] = Solubility in the standard solvents; type: physicochemical; details: all the standard solvents
[4] = first test, 200 mg/kg oral (oesophagal probe), 5 days per week, 12 weeks, diet only 20.43
[5] = first test, 200 mg/kg oral (oesophagal probe), 5 days per week, 12 weeks, diet only 1.47
[6] = first test, 200 mg/kg oral (oesophagal probe), 5 days per week, 12 weeks, scale 0 (no lesions) to 5 (diffuse deposits), batch average, diet only 3.5
[7] = second test, 50 mg/kg, same experimental method, diet only 22.1
[8] = second test, 50 mg/kg, same experimental method, diet only 2.5
[9] = second test, 50 mg/kg, same experimental method, scale 0 to 5, diet only 4

SMILES	Aortic cholesterol (aortic cholesterol; [4])	Plasma cholesterol (plasma cholesterol; [5])	MTD [1]	Extent of atheromatic deposit [2, 6]	Aortic cholesterol (aortic cholesterol; [7])	Plasma cholesterol (plasma cholesterol; [8])	Activity ranking (anti-atheromatic) [2]	Extent of atheromatic deposit [2, 9]	Solubility [3]
N[C@@H](CSCC=Cc1ccccc1)C(=O)O [LJ 536, L β-(3-phenyl-propen-2-ylthio) α-amino propanoic acid]	12.21 mg/kg	1.2 g/L	4000 mg/kg	2.05	–	–	–	–	–
CC(C)=CCC/C(C)=C/CSC[C@H](N)C(=O)O [LJ 558, S-geranylcysteine]	–	–	8000 mg/kg	–	–	–	–	–	–
C=CCSC[C@H](N)C(=O)OC(C)C [LJ 566, Isopropyl L β-(propen-2-ylthio) α-aminopropanoate hydrochloride]	–	–	1500 mg/kg	–	17.3 mg/kg	2.3 g/L	the most active	2.8	–
C=CCSC[C@H](NC(=O)CC[C@H](N)C(=O)O)C(=O)NCC(=O)O [LJ 545, L γ-glutamyl-S-allylcysteinyl glycine]	14.38 mg/kg	1.36 g/L	≥ 10000 mg/kg	2.70	–	–	–	–	–
CC(=Cc1ccccc1)CCSC[C@H](N)C(=O)O [LJ 540, L β-(4-phenyl-3-methylbuten-3-ylthio) α-aminopropanoic acid]	15.00 mg/kg	1.29 g/L	≥ 10000 mg/kg	2.60	–	–	–	–	–
C=CCSC[C@H](N)C(=O)OCC [LJ 565, Ethyl L β-(propen-2-ylthio) α-amino propanoate hydrochloride]	–	–	1500 mg/kg	–	15 mg/kg	2.1 g/L	the most active	2.3	–
N[C@@H](CSCc1cccnc1)C(=O)O [LJ 546, L β-[(pyridyl-3)methylthio]α-amino propanoic acid]	10.72 mg/kg	0.99 g/L	9000 mg/kg	1.85	–	–	the most active	–	–
CC(SC[C@H](N)C(=O)O)c1ccc(Cl)cc1 (stereo partly drawn) [LJ 550, L β-[1-(p-chlorophenyl)ethylthio]α-amino propanoic acid]	11.90 mg/kg	1.17 g/L	4000 mg/kg	2	–	–	the most active	–	practically insoluble in all the standard solvents
